In patent publication EP3124080A1, “SEMISYNTHETIC BILE ACIDS FOR INJECTION LIPOLYSIS” (Merz Pharma GmbH & Co. KGaA, priority 2015, dated 2017):
Where two headings read alike, the source gives them in different places. Marks after values point to notes of the source that are not given here.

Assays:
[1] = tested on: in vitro matured adipocytes; test: alamar blue cell viability assay (adipocytolytic potential), mature adipocytes; assay type: cell-based; details: for Viability Adipocytes (%): 48h incubation, vehicle = 100%
Procedure: (§1) The following experimental setup was used for determination of adipocytolytic potential of test compounds with preadipocytes and mature adipocytes: • Preadipocytes (PromoCell) were seeded in Preadipocyte Growth Medium at 45000 cells/ cm^2 to allow attachment overnight. Cells were cultured at 37°C and 5% CO2 untill postconfluence. Differentiation was started with incubation of cells in Differentiation Medium for 7 days followed by incubation in Nutrition medium for 14 further days. After differentiation process, mature adipocytes were incubated with indicated concentration of indicated triterpenes.
(§2) 6 replicates of each test compound concentration were tested. Each plate included a negative control and a compound interference control (for all concentrations, duplicates).
(§3) Cell viability as surrogate for adipocytolytic potential of compounds were analysed by alamar blue assay. In brief, 20µl of a 0,1mg/ml Resazurin sodium salt (Sigma; R7017-1G) solution was added to each well 48 hrs after compound incubation. The cells were incubated for 90 min at 37°C and 5% CO2 and the resulting conversion of resazurin to resorufin was measured by a fluorescence plate reader at 590 nm. Vehicle controls were set as 100%. IC50-values were analysed using SigmaBlotV13.

[2] = tested on: Preadipocytes (PromoCell); test: alamar blue cell viability assay (adipocytolytic potential), preadipocytes; assay type: cell-based; details: for IC50: viability, 48 hrs, read-out: IC50 [µM] Pre-ad ipocytes; for Viability Preadipocytes (%): 48h incubation, vehicle = 100%
Procedure: as §1, §2, §3

[3] = tested on: adipocytes; test: Caspase-Glo 3/7 Assay, apoptosis induction in adipocytes; assay type: cell-based; details: vehicle basal apoptosis = 100%
Procedure: as §1
For analysing the potential of compounds to induce apoptosis the Caspase-Glo® 3/7 Assay was used (Promega) as recommended by the supplier. In brief, 100µl of Caspase Reagent was added to 100µl cell culture medium and cells were incubated at 37°C and 5% CO2 for 1 hr. Luminescence signal was measured with a SynergyH4 plate reader. Vehicle controls were used to define basal apoptosis as 100%. Table 1 Impact on viability of in vitro matured adipocytes after 48h incubation with indicated compound in increasing concentration

[4] = tested on: inguinal fat pad; test: injection into inguinal fat pads of rats: fat pad weight, volume, fat content; assay type: in vivo, Male Sprague-Dawley rats; details: 3 sites 100 µl each, days 1, 7, 14, analysis day 35, mean ±SEM
Procedure: All work was done under sterile extractor hood/luminar airflow working environment. Final solution were filtered through sterile 0.22um Millipore PES membrane syringer filter unit. […].
To 0.4099g Na3PO4 water for injection was added to a final weight of 50 g.
For the highest (2%) concentration, 100 mg of obeticholic acid were added with 2.75 ml of above solution, 112,5 mg of glycerol and finally 2.038 ml of sterile water to make 5 ml solution. Lower concentrations were adjusted accordingly.
Male Sprague-Dawley rats (200-300g of body weight) were used for this study (Vital River Laboratories Animal Ltd., China) and were housed in a temperature (22 ± 3 °C) and humidity (55 ± 15 %) controlled AAALAC accredited facility. Animals were provided with food (Keaoxieli certified Rodent Diet) and sterile water ad libitum. The animals were on a 12-hour light/dark (6:00 am /6:00 pm) cycle and acclimated for 1 week prior to the study. Rats were housed in a plexiglas cage (3 rats per cage).
(§4) After shaving the skin the inguinal area, rats, were injected into the inguinal fat pads (3 injection sites per fat pad for every rat, 100ul/per site). For all groups, 6 rats were injected with sterile vehicle, or obeticholic acid on day 1, day 7 and day 14 in the right pad and left fat pad was intact. For the other 6 rats were injected with sterile vehicle obeticholic acid on day 1, day 7 and day 14 in the left pad and right pad was intact.
Isolated inguinal fat pad volume was measured using YLS - 7 b digit volume measuring instrument (Jinan YiYan Technology Development co., LTD, Shandong, P.R. China) according to manufacturer instructions.
Rats were euthanized and the abdomen was cut and opened. Inguinal fat pads were exposed and a photo was taken. Then inguinal fat pads were isolated, and a gross photo was taken again followed by weighting of the pad. Total fat lipids were extracted from the inguinal fat using a protocol adapted from Folch et al. Fresh fat tissue (1g) was homogenized in 20ml of a 2:1 chloroform-methanol solution. The homogenate was filtered using a fat-free filter paper and funneled into a pre-weighted 50-ml glass vial. Then the previous vial and funnel were washed with an additional 5ml of a 2:1 chloroform-methanol solution. Afterwards 2.5 ml of 0.9% NaCl was added. The lipids were separated by centrifugation at 1,800 g, 10°C for 5 min; the aqueous layer was discarded and the tube was flushed with nitrogen until the lipid pellet was dry. The tube containing the lipid pellet was reweighed, and total lipid extracted per gram of total tissue was calculated.
Results were expressed as mean ± SEM. Statistical analysis was performed using ANOVA on ranks, followed if significant by Mann-Whitney test. The difference was considered significant when p< 0.05.
. Herein, the values representmean ±SEM. *-P<0.05 vs control. Table 5 Effect of obeticholic acid on inguinal fat pad in rats.

[5] = tested on: inguinal fat pad; test: fat histology analysis of injected inguinal fat pads (H&E); assay type: in vivo, Male Sprague-Dawley rats
Procedure: as §4
Inguinal fat embedded in paraffin were cross-sectioned (5 µm each). For each mouse, a serial section at intervals of 40 to 50 µm was made and one section was collected for every 10 sections. In total, five sections per animal were used for Hematoxylin and eosin (H&E) stain and adipocyte number and size analysis. Histologic examination was performed by well-trained pathologists in a double-blind fashion. Three factors were examined in each sample: the quantity of normal fat, fat necrosis and inflammatory activity. […]. H&E staining was used in evaluation of the inflammatory status.

[6] = Adipocyte, viability, 48 hrs, read-out: IC50 [µM] Adipocytes
[7] = 48 h, read-out: Viability Preadipocytes (%)

Compound: CC[C@H]1[C@@H](O)[C@@H]2[C@H](CC[C@]3(C)[C@@H]([C@H](C)CCC(=O)O)CC[C@@H]23)[C@@]2(C)CC[C@@H](O)C[C@@H]12 [Obeticholic acid, (3α,5β,6α,7α)-6-ethyl-3,7-dihydroxycholan-24-oic acid]
- Viability Adipocytes (%) ([1]; 100 µM): 49.17%
- viability at 10 µM ([1]; Adipocyte, 48 h, read-out: Viability Adipocytes (%), 10 µM, 48h incubation, vehicle = 100%): 101%
- viability at 50 µM ([1]; Adipocyte, 48 h, read-out: Viability Adipocytes (%), 50 µM, 48h incubation, vehicle = 100%): 89.6%
- viability at 100 µM ([1]; Adipocyte, 48 h, read-out: Viability Adipocytes (%), 100 µM, 48h incubation, vehicle = 100%): ~50%
- viability at 300 µM ([1]; Adipocyte, 48 h, read-out: Viability Adipocytes (%), 300 µM, 48h incubation, vehicle = 100%): 0.29%
- IC50 [1, 6]: 93.9 µM
- viability at 10 µM [2, 7]: 93%
- viability at 50 µM [2, 7]: 83.1%
- viability at 100 µM [2, 7]: 21.4%
- viability at 300 µM [2, 7]: 0.41%
- IC50 [2]: 87.2 µM
- Apoptosis Adipocytes (%) ([3]; 50 µM, 6 hrs): 132.28%
- Apoptosis Adipocytes (%) ([3]; 50 µM, 24 hrs): 146.44%
- Apoptosis Adipocytes (%) ([3]; 100 µM, 6 hrs): 503.28%
- Apoptosis Adipocytes (%) ([3]; 100 µM, 24 hrs): 180.88%
- Apoptosis Adipocytes (%) ([3]; 300 µM, 6 hrs): 1164.30%
- Apoptosis Adipocytes (%) ([3]; 300 µM, 24 hrs): 779.64%
- Inguinal fat pad fat content difference to contralateral (sham) pad (g) N=8 ([4]; 0.5 % solution): -0.169±0.02* g
- Inguinal fat pad weight difference to contralateral (sham) pad (g) N=12 ([4]; 0.5 % solution): -0.192±0.04* g
- Inguinal fat pad fat content difference to contralateral (sham) pad (g) N=8 ([4]; 1 % solution): -0.387±0.04* g
- Inguinal fat pad weight difference to contralateral (sham) pad (g) N=12 ([4]; 1 % solution): -0.352±0.03* g
- Inguinal fat pad fat content difference to contralateral (sham) pad (g) N=8 ([4]; 2 % solution): -0.523±0.05* g
- Inguinal fat pad weight difference to contralateral (sham) pad (g) N=12 ([4]; 2 % solution): -0.526±0.07* g
- inflammation (histology) ([5]; 0.5 % solution injected into inguinal fat pad): not
- fat necrosis as measured by histology ([5]; 0.5, 1 and 2 % solutions): not affected
- normal fat content as measured by histology ([5]; 0.5, 1 and 2 % solutions): not affected
- inflammation (histology) ([5]; 1 % solution injected into inguinal fat pad): not
- inflammation (histology) ([5]; 2 % solution injected into inguinal fat pad): increase in inflammation

Compound: C[C@H](CCC(=O)O)[C@H]1CC[C@H]2[C@@H]3CC[C@@H]4C[C@H](O)CC[C@]4(C)[C@H]3C[C@H](O)[C@]12C [Deoxycholic acid]
- Viability Adipocytes (%) ([1]; 10 µM): 106.98%
- Viability Adipocytes (%) ([1]; 50 µM): 95.61%
- Viability Adipocytes (%) ([1]; 100 µM): 94.30%
- Viability Adipocytes (%) ([1]; 300 µM): 22.06%
- Viability Adipocytes (%) ([1]; 600 µM): 0.11%
- IC50 ([1]; Adipocyte, read-out: concentration required to achieve 50%-decrease in vitality of adipocytes): 200 µM
- IC50 [1, 6]: 244 µM
- Viability Preadipocytes (%) ([2]; 10 µM): 96.22%
- Viability Preadipocytes (%) ([2]; 50 µM): 95.61%
- Viability Preadipocytes (%) ([2]; 100 µM): 98.03%
- Viability Preadipocytes (%) ([2]; 300 µM): 26.08%
- Viability Preadipocytes (%) ([2]; 600 µM): 0.00%
- IC50 [2]: 232 µM
